Measured values: patent US7241785B2, “Five-membered heterocyclic alkanoic acid derivative” (Takeda Pharmaceutical Company Limited, priority 2001, dated 2007)

What was measured:
KKA^y mice [1] = assay: Hypoglycemic and hypolipidemic (hypotriglyceridemic) actions in mice; type: in vivo; details: Mus musculus, po, 96 h, 0.01% in powdery diet, four days
Method: Hypoglycemic and Hypolipidemic (Hypotriglyceridemic) Actions in Mice
Test compounds were mixed in a powdery diet (CE-2, Japan Clea) at the concentration of 0.01%, and freely given to KKA^y mice (11 to 12 weeks old, 5 mice per group), a model of type 2 diabetes mellitus, for four days. During this period, water was given freely. Blood was sampled from orbital venous plexus, and glucose and triglyceride levels in plasma separated from the blood were determined enzymatically using L type Wako Glu2 (Wako Pure Chemical Industries, Ltd.) or L type Wako TG.H (Wako Pure Chemical Industries, Ltd.), respectively.
In the Table, “hypoglycemic action (%)” represents a percent reduction (%) of the blood glucose level in the treatment group when the blood glucose level in the non-treatment group is taken as 100%. In addition, “hypolipidemic action (%)” represents a percent reduction (%) of the blood triglyceride level in the treatment group when the blood triglyceride level in the non-treatment group is taken as 100%.

PPARγ-RXRα heterodimer = target: T1, PPARγ-RXRα heterodimer (Homo sapiens, UniProt P37231); assay: PPARγ-RXRα heterodimer ligand activity (luciferase reporter, PPARγ:RXRα:4ERPP/CHO-K1 cells); type: cell-based; details: concentration for 50% of maximum fold induction of luciferase, 48 hrs
T1 construct: expressed in transfected cells
T1 sequence (P37231 1-477 isoform P37231-2): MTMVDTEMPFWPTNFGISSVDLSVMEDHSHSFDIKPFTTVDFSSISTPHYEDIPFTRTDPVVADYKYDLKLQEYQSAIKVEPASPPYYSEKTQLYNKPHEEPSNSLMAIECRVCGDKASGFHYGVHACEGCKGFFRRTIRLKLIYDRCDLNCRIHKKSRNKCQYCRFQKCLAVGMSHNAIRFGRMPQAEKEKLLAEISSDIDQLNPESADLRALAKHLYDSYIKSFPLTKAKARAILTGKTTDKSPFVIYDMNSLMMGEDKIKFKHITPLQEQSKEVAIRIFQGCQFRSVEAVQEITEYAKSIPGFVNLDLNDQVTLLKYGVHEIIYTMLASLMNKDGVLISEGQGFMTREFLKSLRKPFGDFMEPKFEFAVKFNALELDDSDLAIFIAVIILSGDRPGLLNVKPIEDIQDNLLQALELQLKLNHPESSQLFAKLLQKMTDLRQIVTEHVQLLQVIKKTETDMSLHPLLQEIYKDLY
T1 sequence (P19793 1-462 partner): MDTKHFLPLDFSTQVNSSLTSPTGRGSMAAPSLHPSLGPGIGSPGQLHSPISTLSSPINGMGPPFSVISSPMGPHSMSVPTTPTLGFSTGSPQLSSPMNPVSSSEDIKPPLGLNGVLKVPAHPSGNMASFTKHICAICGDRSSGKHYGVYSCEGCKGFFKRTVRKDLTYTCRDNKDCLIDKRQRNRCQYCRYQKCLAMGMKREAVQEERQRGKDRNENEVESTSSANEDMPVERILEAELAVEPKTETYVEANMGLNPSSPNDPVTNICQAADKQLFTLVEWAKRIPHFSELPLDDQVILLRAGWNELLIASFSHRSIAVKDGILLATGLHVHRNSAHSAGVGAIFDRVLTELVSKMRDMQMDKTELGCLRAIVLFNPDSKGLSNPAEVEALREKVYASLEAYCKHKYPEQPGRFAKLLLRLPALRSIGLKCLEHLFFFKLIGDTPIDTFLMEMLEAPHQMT
Method: (PPARγ-RXRα Heterodimer Ligand Activity)
PPARγ:RXRα:4ERPP/CHO-K1 cells obtained in Reference Example 8a were cultured in HAM F12 medium (manufactured by NISSUI SEIYAKU) containing 10% fetal bovine serum [manufactured by Life Technologies, Inc., USA], seeded in a 96-well white plate [manufactured by Corning Coster Corporation, USA] at the density of 2×10^4 cells/well and cultured in a CO2 gas incubator at 37° C. overnight.
After washing the 96-well white plate with PBS (Phosphate-buffered saline), 90 μl of HAM F12 medium containing 0.1% fatty acid-free bovine serum albumin (BSA) and 10 μl of test compound were added, and the cells were cultured in a CO2 gas incubator at 37° C. for 48 hrs. The medium was removed and 40 μl of PicaGene 7.5 (manufactured by Wako Pure Chemical Industries, Ltd.) was added. After stirring, the luciferase activity was determined using Lumistar [manufactured by BMG Labtechnologies GmbH, Germany].
The fold induction was calculated from the luciferase activity of each test compound when the luciferase activity of the non-treatment group is taken as 1. The values of the test compound concentration and the fold induction were analyzed using PRISM 2.01 (produced by GraphPad Software Inc. USA) to calculate the EC50 values, the effective concentration of a test compound for 50% of the maximum fold induction.
Introduction of Human PPARγ- and RXRα-Expression Plasmid and Reporter Plasmid into CHO-K1 Cell and Establishment of Expressed Cell
After a CHO-K1 cell cultured in a tissue culture flask (750 ml) (produced by Corning Costar Corporation, USA) containing HAM F12 medium (produced by NISSUI SEIYAKU) supplemented with 10% fetal bovine serum (produced by Life Technologies, Inc., USA) was scraped by treating with 0.5 g/L trypsin-0.2 g/L EDTA (ethylenediaminetetraacetic acid) (produced by Life Technologies, Inc., USA), the cell was washed with PBS (phosphate-buffered saline) (produced by Life Technologies, Inc., USA), centrifuged (1000 rpm, 5 minutes), and then suspended in PBS. Subsequently, a DNA was introduced into the cell under the conditions shown below using GENE PULSER (produced by Bio-Rad Laboratories, USA).
Namely, to a cuvette having a 0.4 cm gap, added were 8×10^6 cells and 10 μg of plasmid pVgRXR2-hPPARγ obtained in Reference Example 7a and 10 μg of reporter plasmid pGL3-4ERPP-TK neo obtained in Reference Example 4a, which was subjected to electroporation at the voltage of 0.25 kV under the capacitance of 960 μF. Subsequently, the cell was transferred into a HAM F12 medium containing 10% fetal bovine serum and cultured for 24 hours and then the cell was scraped again and centrifuged, and then suspended in HAM F12 medium containing 10% fetal bovine serum supplemented with 500 μg/ml of GENETICIN, (produced by Life Technologies, Inc., USA) and 250 μg /ml of ZEOCIN (produced by Invitrogen, USA). The obtained suspension was diluted to the density of 10^4 cells/ml and inoculated to a 96-well plate (produced by Corning Costar Corporation, USA), which was cultured in a CO2 gas incubator at 37° C., whereby obtaining a GENETICIN- and ZEOCIN-resistant transformant.
Subsequently, after the transformant cell line thus obtained was cultured in a 24-well plate (produced by Corning Costar Corporation, USA), selected was a cell line in which the luciferase was expressed and induced, i.e., PPARγ:RXRα:4ERPP/CHO-K1 cell by the addition of 10 μM pioglitazone hydrochloride.

KKA^y mice [2] = assay: Total cholesterol lowering action and plasma anti-arteriosclerosis index-enhancing action in mice; type: in vivo; details: Mus musculus, po, 96 h, 0.01% in powdery diet, four days; for change in vivo at 0.01 % in diet: percent increase of index [(HDL cholesterol/total cholesterol)×100] vs non-treatment group (100%); for inhibition in vivo at 0.01 % in diet: percent reduction of total cholesterol level vs non-treatment group (100%)
Method: Total Cholesterol Lowering Action and Plasma Anti-Arteriosclerosis Index-Enhancing Action in Mice
Test compounds were mixed in a powdery diet (CE-2, Japan Clea concentration of 0.01%, and freely given to KKA^y mice (11 to 12 weeks old, 5 mice per group), a model of type 2 diabetes mellitus, for four days. During this period, water was given freely. Blood was sampled from orbital venous plexus, and components in plasma separated from the blood were determined. Total cholesterol levels were determined using L type Wako Cholesterol (Wako Pure Chemical Industries, Ltd.). Precipitation reagent for HDL cholesterol was added to a part of the plasma to precipitate non-HDL lipoprotein, and cholesterol (HDL cholesterol) in the resulting supernatant was determined. The plasma anti-arteriosclerosis index [(HDL cholesterol/total cholesterol)×100] was calculated using these cholesterol levels.
In the Table, “total cholesterol lowering action (%)” represents a percent reduction (%) of the total cholesterol level in the treatment group when the total cholesterol level in the non-treatment group is taken as 100%. In addition, “plasma anti-arteriosclerosis index-enhancing action (%)” represents a percent increase (%) of the plasma anti-arteriosclerosis index in the treatment group when the plasma anti-arteriosclerosis index in the non-treatment group is taken as 100%.

[3] = percent reduction of blood glucose level vs non-treatment group (100%), read-out: Hypoglycemic action (%)
[4] = percent reduction of blood triglyceride level vs non-treatment group (100%), read-out: Hypolipidemic action (%)

| SMILES | inhibition in vivo at 0.01 % in diet (KKA^y mice [1]; [3]) [%] | inhibition in vivo at 0.01 % in diet (KKA^y mice [1]; [4]) [%] | EC50 (PPARγ-RXRα heterodimer) [nM] | melting point [°C] | change in vivo at 0.01 % in diet (KKA^y mice [2]) [%] | inhibition in vivo at 0.01 % in diet (KKA^y mice [2]) [%] |
| --- | --- | --- | --- | --- | --- | --- |
| Cc1oc(-c2ccccc2)nc1COc1ccc(Cc2nc(-c3ccccc3)c(CCC(=O)O)o2)cc1 [Example 2, 3-[2-[4-(5-methyl-2-phenyl-4-oxazolylmethoxy)benzyl]-4-phenyl-5-oxazolyl]propionic acid] | 45 | 52 | 3.7 | 142 to 143 | – | – |
| Cc1oc(-c2ccccc2)nc1COc1ccc(Cc2nc(-c3ccccc3)c(CCC(=O)O)[nH]2)cc1 [Example 4, 3-[2-[4-(5-methyl-2-phenyl-4-oxazolylmethoxy)benzyl]-4-phenyl-1H-imidazol-5-yl]propionic acid] | – | – | 16 | 193 to 196 | – | – |
| Cc1oc(-c2ccccc2)nc1COc1ccc(Cc2nc(CCC(=O)O)c(-c3ccccc3)o2)cc1 [Example 6, 3-[2-[4-(5-methyl-2-phenyl-4-oxazolylmethoxy)benzyl]-5-phenyl-4-oxazolyl]propionic acid] | 46 | 62 | 3.6 | 136 to 137 | 17 | 27 |
| Cc1oc(-c2ccccc2)nc1COc1ccc(Cc2nc(CCC(=O)O)c(-c3ccccc3)s2)cc1 [Example 8, 3-[2-[4-(5-methyl-2-phenyl-4-oxazolylmethoxy)benzyl]-5-phenyl-4-thiazolyl]propionic acid] | 43 | 56 | 16 | 119 to 120 | 11 | 17 |
| Cc1oc(-c2ccccc2)nc1COc1ccc(COc2nn(C)cc2CC(=O)O)cn1 [Example 26, [1-methyl-3-[6-(5-methyl-2-phenyl-4-oxazolylmethoxy)-3-pyridylmethoxy]-1H-pyrazol-4-yl]acetic acid] | 56 | 53 | 37 | 139 to 140 | 14 | 14 |
| Cc1oc(-c2ccccc2)nc1COc1ccc(COc2nn(Cc3ccccc3)cc2CC(=O)O)cn1 [Example 40, [1-benzyl-3-[6-(5-methyl-2-phenyl-4-oxazolylmethoxy)-3-pyridylmethoxy]-1H-pyrazol-4-yl]acetic acid] | 52 | 76 | – | 87 to 88 | 22 | 13 |
| Cc1oc(-c2ccccc2)nc1COc1ccc(COc2nn(-c3ccccc3)cc2CC(=O)O)cc1 [Example 50, [3-[4-(5-methyl-2-phenyl-4-oxazolylmethoxy)benzyloxy]-1-phenyl-1H-pyrazol-4-yl]acetic acid] | 46 | 81 | 3.9 | 151 to 152 | 12 | 8 |
| COc1cc(COc2nn(-c3ccccc3)cc2CC(=O)O)ccc1OCc1nc(-c2ccccc2)oc1C [Example 52, [3-[3-methoxy-4-(5-methyl-2-phenyl-4-oxazolylmethoxy)benzyloxy]-1-phenyl-1H-pyrazol-4-yl]acetic acid] | 50 | 82 | 0.38 | 147 to 148 | 16 | 22 |
| Cc1oc(-c2ccccc2)nc1COc1ccc(COc2nn(-c3ccccc3)cc2CC(=O)O)cn1 [Example 54, [3-[6-(5-methyl-2-phenyl-4-oxazolylmethoxy)-3-pyridylmethoxy]-1-phenyl-1H-pyrazol-4-yl]acetic acid] | 52 | 89 | 0.64 | 164 to 165 | 14 | 18 |
| Cc1oc(-c2ccccc2)nc1COc1ccc(CCc2oc(-c3ccccc3)nc2CC(=O)O)cc1 [Example 64, [5-[2-[4-(5-methyl-2-phenyl-4-oxazolyl)methoxyphenyl]ethyl]-2-phenyl-4-oxazolyl]acetic acid] | – | – | 6.9 | 180 to 181 | – | – |
